Several values for one entry are separate records, joined by “and”; a condition that tells them apart may be missing. Identical values can stand only once. Like-named read-outs stand apart in the source and are kept apart here.
Assays:
hHgs 1-390 protein [1] = target: T1, hHgs 1-390 protein (Homo sapiens, UniProt O14964); experiment: biochemical
hHgs 1-390 protein [2] = target: T1, hHgs 1-390 protein

T1 sequence (O14964 1-390): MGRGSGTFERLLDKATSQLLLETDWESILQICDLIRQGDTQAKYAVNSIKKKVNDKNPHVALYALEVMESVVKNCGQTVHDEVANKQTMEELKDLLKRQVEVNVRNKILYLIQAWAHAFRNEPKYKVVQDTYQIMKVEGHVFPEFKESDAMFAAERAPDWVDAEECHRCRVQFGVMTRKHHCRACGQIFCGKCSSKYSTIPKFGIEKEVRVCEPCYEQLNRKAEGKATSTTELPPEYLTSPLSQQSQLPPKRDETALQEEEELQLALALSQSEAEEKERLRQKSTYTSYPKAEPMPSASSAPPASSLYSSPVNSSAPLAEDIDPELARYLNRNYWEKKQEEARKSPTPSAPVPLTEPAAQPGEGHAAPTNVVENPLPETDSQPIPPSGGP

Row | Compound | viability of infected cells (rescue of cytopathic effect), Figures S9G-L (MHV; concentration 10) | viability of infected cells (rescue of cytopathic effect), Figures S9G-L (MHV; concentration 30) | viability of infected cells (rescue of cytopathic effect), Figures S9G-L (MHV; concentration 100) | viability of infected cells (rescue of cytopathic effect), Figures S9G-L (MHV; concentration 300) | viability of infected cells (rescue of cytopathic effect), Figures S9G-L (MHV; concentration 1000) | viability of infected cells (rescue of cytopathic effect), Figures S9G-L (MHV; concentration 3000) | viability of infected cells (rescue of cytopathic effect), Figures S9G-L (MHV; concentration 10000) | viability of infected cells (rescue of cytopathic effect), Figures S9G-L (MHV; concentration 25000) | IC50 (hHgs 1-390 protein [1]) [nM] | cell viability, Figures S9A, B, D-F (17Cl-1 cells; concentration 0.01) | cell viability, Figures S9A, B, D-F (17Cl-1 cells; concentration 0.03) | cell viability, Figures S9A, B, D-F (17Cl-1 cells; concentration 0.1) | cell viability, Figures S9A, B, D-F (17Cl-1 cells; concentration 0.3) | cell viability, Figures S9A, B, D-F (17Cl-1 cells; concentration 1) | cell viability, Figures S9A, B, D-F (17Cl-1 cells; concentration 3) | cell viability, Figures S9A, B, D-F (17Cl-1 cells; concentration 10) | cell viability, Figures S9A, B, D-F (17Cl-1 cells; concentration 25) | Polarization (hHgs 1-390 protein [2]; 0.00610352 uM) | Polarization (hHgs 1-390 protein [2]; 0.0244141 uM) | Polarization (hHgs 1-390 protein [2]; 0.0976562 uM) | also measured
1 | COc1cc(OC)c2ccc(=O)oc2c1 [Citropten, citropten] | 49.655 and 47.1823 and 44.4221 | 48.2749 and 46.3772 and 44.6233 | 44.4221 and 42.6394 and 45.4572 | 47.7573 and 43.5308 and 44.5946 | 47.3548 and 44.7384 and 49.3099 | 49.77 and 48.2461 and 50.575 | 55.1466 and 56.7568 | 67.4813 and 66.8775 and 68.0851 | 2170 | 100 | 100 | 100 | 100 | 100 | 100 | 100 | 100 and 98.7013 and 97.6623 | 144 | 145 and 146 | 135 and 136 | Polarization (hHgs 1-390 protein [2]; 0.390625 uM): 119 and 129; Polarization (hHgs 1-390 protein [2]; 1.5625 uM): 75 and 87; Polarization (hHgs 1-390 protein [2]; 6.25 uM): 26 and 35
2 | CC1=NN(c2ccc(C)c(C)c2)C(=O)/C1=N\Nc1cccc(-c2cccc(C(=O)O)c2)c1O [Eltrombopag, eltrombopag] | 40.6593 and 41.7582 and 41.3919 | 46.1538 and 47.2527 and 46.5201 | 46.1538 and 47.619 and 44.6886 | 42.4908 and 43.956 and 41.7582 | 41.3919 and 43.5897 and 40.6593 | 40.293 and 41.7582 | 45.0549 and 44.3223 and 43.5897 | 23.7729 and 23.8095 and 24.0659 | 1520 | 104.545 and 104.221 | 100.327 and 102.614 and 102.288 | 99.1416 and 102.682 and 102.039 | 104.867 and 102.544 and 103.872 | 103.708 and 104.035 | 104.491 and 102.191 and 102.848 | 96.1957 and 94.8913 and 95.2174 | 58.804 and 63.1229 and 62.4585 | 143 and 142 | 147 and 141 | 143 and 140 | Polarization (hHgs 1-390 protein [2]; 0.390625 uM): 145 and 149; Polarization (hHgs 1-390 protein [2]; 1.5625 uM): 107 and 109; Polarization (hHgs 1-390 protein [2]; 6.25 uM): 80 and 76; Polarization (hHgs 1-390 protein [2]; 25 uM): 89

Reference: publication PMC12948427 (The Journal of Clinical Investigation, 2025)
